Where two headings read alike, the source gives them in different places.
Columns and labels:
[1] = tested on: gastric ulceration; conditions: pre clinic tests; cited from earlier work
[2] = tested on: Wistar female rats; conditions: for survival: dosage of 1,000 mg/Kg
Description: Wistar female rats weighting between 200 and 250 g were used. […] To all studied groups, dosages of 1,000 and, alternatively, of 1,500 mg/kg were administered by gavage feeding.
After fourteen (14) days of administration and observation regarding the toxicity signs of general kind, effects on motion, behavior, breathing, number of deaths and form of occurrence, the animals that have survived were subjected to euthanasia in CO2 and had their organs such as heart, lungs, kidney, liver and stomach removed and weighted. For the analysis of the results were also considered the body weights.

[3] = tested on: Wistar rat paw's edema; assay: Wistar rat paw's edema induced by carragenin; assay type: in vivo; conditions: oral; dosage of 44 mg/kg (example 2), 130 mg/Kg (example 3), 182 mg/Kg (example 1)
Description: 14, p. 2589-99, 2006); ÖZTÜRK, G. et al. (ÖZTÜRK, G. et al. “New analgesic and antiinflammatory agents 4(1H)-pyridinone derivatives”, Europe Journal Medicinal Chemistry, v. 37, n. 10 p. 829-34, 2002); LOLLI, et al. (LOLLI, et al. “A new class of ibuprofen derivatives with reduced gastrotoxicity”, Journal of Medicinal Chemistry, v. 44, p. 3463-68, 2001). Besides these, a paw's edema test was performed using taurine as control of its derived compounds, in the dosage of 10 mg/Kg according to HIRATA, T. et al. (HIRATA, T. et al. “Cyclo-oxygenase isozymes in mucosal ulcergenic and functional responses following barrier disruption in rat stomachs”, British Journal of Pharmacology, v. 122, p. 447-54, 1997).
In order to confirm the biological activity of the compounds of the present invention, tests were performed according to the pharmacological model of Wistar rat paw's edema using groups of six animals. It was verified that, in the reported concentrations, in the presence of equimolar dosages of the compounds described in the articles above-mentioned, such as referral drugs, a reduction of the inflammatory process with the use of the compounds of the invention was observed.
The compounds of the present invention were administered 1 (one) hour prior the inoculation of the irritant agent carragenin in the paws of the animals, with the aid of a gavage tube, orally, using water as solvent.
The control group had the irritant agent carragenin applied to the bottom of their posterior paws and, orally, saline solution. […] Other groups of animals had the taurine derived of the present invention (embodiments corresponding to Examples 1, 2 and 3, respectively—orally) administered 60 minutes prior to the carragenin (bottom of the paw).
The posterior paws were measured prior to the treatments and at each hour, for 6 hours after the carragenin was administered, using an thickness meter, in order to measure their volume (in mm). The results were expressed by the difference between the paw's measurement readings before and after the treatments.

[4] = oral administration; literature (Merck Index); cited from earlier work
[5] = tested on: gastric mucous membrane; assay: Gastric ulcerogenesis (gastric ulcerogenesis index, G.U.I.); assay type: in vivo; conditions: for alterations / color of the gastric mucous membrane: same animals as paw's edema model; for lesion index (gastric ulcerogenesis index): stomach 6 hours after paw readings, macroscopic and microscopic (640x)
Description: Gastric ulcerogenesis was verified in the same animals of the groups used for the model of paw's edema.
After 6 hours of the paw's measurement readings, the animals were subjected to euthanasia in CO2, and had their stomach removed, cut open in the longitudinal axis and washed with saline solution. In all experiments, the groups were composed of 6 animals, being kept the desired therapeutic activity, with absence of gastric lesions, and after the LD50 assays, it was concluded that the taurine derived compounds of the present invention are safe. It is worth observing, still, that other organs, such as lungs and intestine, as well as the macroscopic integrity of the other organs were kept preserved.
Through mucous membrane exposition, it was observed its color and integrity. In the case of lesions existence, they were counted and measured, according to the gastric ulcerogenesis index (G.U.I.) that follows numeric criteria for classification of lesions of the gastric mucous membrane: (lesions<1 mm=1; […]; 2.5 to 3.5 mm=3; 3.5 to 4.5 mm=4 and >4.5 mm=5). The obtained results were reported as averages±E. P. M. The results of the lesion experiment regarding the administration of the compounds of the present invention (embodiments corresponding to the Examples 1, 2 and 3) were neither macroscopically nor microscopically (640×) observed, being reported as lesion index of 0 (zero) value.

[6] = tested on: isolated gastric mucosal cells; conditions: cited from earlier work
[7] = tested on: gastric mucosal injury; conditions: rats pre-treated intragastrically with 250 or 500 mg/kg 1 to 3 days before 25 mg/kg indometacin; cited from earlier work
[8] = biological target: T1, iNOS (Homo sapiens, UniProt P35228); assay: nitric oxide production by macrophages stimulated with LPS, indirect nitrite (NO2-) detection; assay type: cell-based; conditions: 24 hours
T1 construct: The assay used the maximum production of nitric oxide (macrophages stimulated with LPS); endogenous in cells
T1 sequence (P35228 whole entry, species assumed): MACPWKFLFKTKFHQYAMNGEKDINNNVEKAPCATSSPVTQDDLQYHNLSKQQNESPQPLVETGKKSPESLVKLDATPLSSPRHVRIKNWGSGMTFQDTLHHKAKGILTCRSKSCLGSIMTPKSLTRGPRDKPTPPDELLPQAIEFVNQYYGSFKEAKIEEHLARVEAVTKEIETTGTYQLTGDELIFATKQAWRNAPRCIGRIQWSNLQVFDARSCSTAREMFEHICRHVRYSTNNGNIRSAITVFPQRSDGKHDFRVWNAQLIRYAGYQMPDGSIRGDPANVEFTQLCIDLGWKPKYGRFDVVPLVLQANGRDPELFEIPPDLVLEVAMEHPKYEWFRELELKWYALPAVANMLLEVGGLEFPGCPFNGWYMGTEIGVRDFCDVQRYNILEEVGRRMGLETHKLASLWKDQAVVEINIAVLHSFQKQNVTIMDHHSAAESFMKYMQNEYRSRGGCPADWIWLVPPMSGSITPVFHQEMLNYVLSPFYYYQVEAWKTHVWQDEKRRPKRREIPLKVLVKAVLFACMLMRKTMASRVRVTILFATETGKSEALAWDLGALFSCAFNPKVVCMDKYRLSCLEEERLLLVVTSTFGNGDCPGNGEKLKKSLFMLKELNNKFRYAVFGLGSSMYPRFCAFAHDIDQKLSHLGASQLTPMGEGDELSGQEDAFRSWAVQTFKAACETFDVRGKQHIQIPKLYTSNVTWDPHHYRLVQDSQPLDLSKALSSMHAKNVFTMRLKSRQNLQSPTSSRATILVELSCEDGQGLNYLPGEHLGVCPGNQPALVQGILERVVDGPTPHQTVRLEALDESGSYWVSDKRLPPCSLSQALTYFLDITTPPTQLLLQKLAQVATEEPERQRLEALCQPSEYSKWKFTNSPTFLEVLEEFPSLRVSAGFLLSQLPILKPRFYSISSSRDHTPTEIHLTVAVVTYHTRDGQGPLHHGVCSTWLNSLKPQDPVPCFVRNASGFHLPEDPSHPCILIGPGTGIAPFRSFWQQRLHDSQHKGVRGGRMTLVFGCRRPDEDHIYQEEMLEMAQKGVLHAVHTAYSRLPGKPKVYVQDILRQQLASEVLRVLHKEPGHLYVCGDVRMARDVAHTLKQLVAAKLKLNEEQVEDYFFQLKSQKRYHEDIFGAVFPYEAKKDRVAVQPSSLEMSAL

Compound: COC(=O)[C@@H](N)CCCNC(=N)N[N+](=O)[O-] [L-NAME, N^G-nitro-L-arginine methyl esther]
- change in gastric acidity [1]: does not affect gastric acidity
- lesion rate [1]: doubles
- reduction of nitric oxide (measured as nitrite) [1]: 50%

Compound: COc1ccc2cc(C(C)C(=O)NCCS(=O)(=O)[O-])ccc2c1.[Na+] (stereo not shown) [Compound 63, 2-{[2-(6-methoxy-2-naphthyl)propanoyl]amide}ethanesulfonic acid]
- survival ([2]; gavage): all animals survived
- deaths ([2]; dosage of 1,500 mg/Kg, gavage): 17%
- anti inflammatory activity in paw's edema [3]: anti inflammatory activity
- LD50 [4]: 1,234 mg/Kg
- alterations / color of the gastric mucous membrane [5]: not observed alterations in the mucous membrane
- lesion index (gastric ulcerogenesis index) [5]: 0

Compound: NCCS(=O)(=O)O [taurine, 2-aminoethanesulfonic acid]
- increase of cellular resistance [6]: 21%
- hemorrhagic gastric lesion [7]: lesion reduction

Compound: CC(C)Cc1ccc(C(C)C(=O)O)cc1 (stereo not shown) [ibuprophen, reference compound]
- alterations / color of the gastric mucous membrane [5]: color alteration of the mucous membrane

Compound: COc1ccc2c(c1)c(CC(=O)NCCS(=O)(=O)[O-])c(C)n2C(=O)c1ccc(Cl)cc1.[Na+] [Compound 64]
- weight of the organs (kidney, heart and liver) versus control animals ([2]; after the toxicity assay, 14 days): substantially close of those obtained with the control animals
- survival ([2]; gavage): no animal has died
- population survived ([2]; dosage of 1,500 mg/Kg, gavage): 66%
- anti inflammatory activity in paw's edema [3]: anti inflammatory activity
- alterations / color of the gastric mucous membrane [5]: not observed alterations in the mucous membrane
- lesion index (gastric ulcerogenesis index) [5]: 0

Compound: N=C(N)NN [aminoguanidine]
- inhibition of nitric oxide production (NOS inhibition activity) [8]: total inhibition of nitric oxide production

Compound: CC(C)Cc1ccc(C(C)C(=O)NCCS(=O)(=O)[O-])cc1.[Na+] (stereo not shown) [Compound 27, [2-(4-isobuthylphenyl)propanoyl]amide ethanesulfonic acid]
- deaths ([2]; any of the tested dosages (1,000 and 1,500 mg/kg), gavage): no death in any of the tested dosages
- anti inflammatory activity in paw's edema [3]: anti inflammatory activity
- LD50 [4]: 1,050 mg/Kg
- alterations / color of the gastric mucous membrane [5]: did not present any color alteration in the mucous membrane
- alterations / color of the gastric mucous membrane ([5]; listed as Example 1): not observed alterations in the mucous membrane
- lesion index (gastric ulcerogenesis index) [5]: 0

From patent US8569335B2, “Compounds derived from taurine, process of their preparation and pharmaceutical compositions containing these” (EMS S.A., priority 2008, dated 2013)
